System: cell layers
Experiment: USP (87) biological reactivity testing (cytotoxicity)
Type: cell-based
Design: key: “severe” reactivity meaning there was nearly complete destruction of all cell layers
Conditions: dilutions of 50 ppm BAK with EDTA in saline ophthalmic vehicle, down to 5% of use concentration
Description: Testing was conducted by a neutral third party laboratory to determine the cytotoxicity of benzalkonium chloride (BAK) when used as a preservative in a standard topical saline ophthalmic solution vehicle. Test solutions of BAK at various dilutions at the typical preservation concentration used in ophthalmic products (50 ppm) were subject to USP (87) biological reactivity testing and graded according to reactivity. All solutions contained EDTA as an adjunct to enable the BAK to be active against gram negative bacteria. All negative and positive controls were nominal.

## benzalkonium chloride [BAK]
  USP (87) biological reactivity grade: severe

Source: patent publication US12005139B2, “Ophthalmic formulations and related methods” (EternaTear, Inc., priority 2022, dated 2024)
